Results published in PMC9037180, “Ligand-based design and synthesis of N'-Benzylidene-3,4-dimethoxybenzohydrazide derivatives as potential antimicrobial agents; evaluation by in vitro, in vivo, and in silico approaches with SAR studies” (Journal of Enzyme Inhibition and Medicinal Chemistry, 2022).
Converted amounts (≈) assume the structure as drawn. Read-outs that look alike come from different tables or passages of the source.

How the values were obtained:
[1] = test system: A. baumanii ATCC 19606; assay: Minimal inhibitory concentration (MIC), broth dilution; details: Acinetobacter baumannii, ATCC19606
[2] = test system: P. Auriginosa; assay: Minimal bactericidal concentration (MBC); assay type: cell-based, P. aeruginosa; details: Pseudomonas aeruginosa
Protocol: (§1) After determining the MIC for the target compounds, the minimal bactericidal concentration (MBC) for each compound that is required to kill each one of the above-mentioned microorganisms was assessed.

[3] = test system: Aciento MDR; assay: Minimal inhibitory concentration (MIC), broth dilution; details: Acinetobacter baumannii
[4] = test system: Aciento sensitive; assay: Minimal bactericidal concentration (MBC); assay type: cell-based, A. baumanii; details: Acinetobacter baumannii
Protocol: as §1

[5] = test system: S. typhi; assay: Minimal bactericidal concentration (MBC); assay type: cell-based; details: Salmonella enterica
[6] = test system: E. faecalis ATCC 29212; assay: Minimal inhibitory concentration (MIC), broth dilution; details: Enterococcus faecalis, ATCC29212
[7] = test system: S. aureus ATCC 6538; assay: as above; details: Staphylococcus aureus, ATCC6538
[8] = test system: E. coli ATCC 25922; assay: as above; details: Escherichia coli
[9] = test system: S. typhi clinical isolate; assay: as above; assay type: cell-based; details: Salmonella enterica, TYPHI
[10] = test system: C. albicans; assay: Agar well diffusion assay (antifungal); assay type: cell-based; details: result in words
Protocol: The agar well diffusion assay was first done to evaluate the antimicrobial activities of the different target compounds (4a–j) against gram-positive bacteria, gram-negative bacteria, and fungi (Table 1A). […] First, the antibacterial activities were tested against S. aureus ATCC 6538, Acientobacter (A. baumanii) ATCC 19606, S. typhi, E. coli, and P. aeruginosa as examples of the most common gram-positive and gram-negative bacteria, in comparison to vancomycin and ceftriaxone as two reference standards. In addition, the antifungal activities were screened against C. albicans, in comparison to amphotericin as a reference standard. […] The antibacterial activities of some tested compounds (4a, 4b, 4h, and 4e) against gram-positive and gram-negative bacteria by agar well diffusion assay are represented in the supplementary data (Figure SI1).
(§2) In vitro evaluation for antifungal activities regarding target compounds (4a–j) as well as reference drug, was done against C. albicans MTCC183 through the zone inhibition technique using well diffusion agar assay in addition to MIC.
A modification of the agar well diffusion method[55] was done to detect the antimicrobial activities of different compounds (4a–j) against gram-positive bacteria, gram-negative bacteria, and fungi. […] The zones of inhibition were measured in cm.

[11] = test system: E. faecalis, Acientobacter, P. auriginosa, S. aureus, S. typhi, E. coli, C. albicans; assay: Average MIC over the nine tested microbial species (SAR); assay type: cell-based; details: for antimicrobial activity (SAR grading): based on MIC average values; for MIC: read-out: Average MIC
From the text: Herein, we aimed to study the structure-antimicrobial activity relationship of the newly synthesised N'-benzylidene-3,4-dimethoxybenzohydrazide derivatives based on MIC average values[51]^,[52] as represented in the supplementary data (Table SI1). Thereby, the changes in their antimicrobial potential and spectrum upon structural modifications could be unveiled, thus offering clues for structural changes that are capable of increasing the antimicrobial potential.

[12] = Cytotoxicity on cells using MTT assay; assay type: cell-based; details: African green monkey, Vero cells (normal mammalian cell line)
Protocol: The newly synthesised compounds were looked deeply into their efficacy using in silico, in vitro, and in vivo approaches. On the other hand, the cytotoxicity assay was performed for the tested compounds using a normal mammalian Vero cell line by the MTT assay[31]^,[32].
Moreover, the cytotoxicity values of the target compounds were determined to calculate their corresponding IC50 values through the MTT assay. The IC50 value indicates the compound’s concentration that is required to inhibit 50% of the target cells.
The MTT (3–(4,5-dimethylthiazol-2-yl)-2,5-diphenyltetrazolium bromide) tetrazolium reduction assay protocol was applied to determine the cytotoxicity of the target compounds (4a–j) on cells.

[13] = test system: C. albicans; assay: Minimal bactericidal concentration (MBC); assay type: cell-based; details: Candida albicans
Protocol: as §1

[14] = test system: S. aureus; assay: Minimal bactericidal concentration (MBC); assay type: cell-based; details: Staphylococcus aureus
Protocol: as §1

[15] = test system: E. coli; assay: Minimal bactericidal concentration (MBC); assay type: cell-based; details: Escherichia coli
Protocol: as §1

[16] = test system: E. faecalis; assay: Minimal bactericidal concentration (MBC); assay type: cell-based; details: Enterococcus faecalis
Protocol: as §1

[17] = test system: P. aeruginosa ATCC10145; assay: Minimal inhibitory concentration (MIC), broth dilution; details: Pseudomonas aeruginosa
[18] = test system: C. albicans MTCC183; assay: as above; assay type: cell-based; details: Candida albicans, MTCC183
From the text: as §2

[19] = test system: Acientobacter sensitive; assay: as above; details: Acinetobacter baumannii
[20] = test system: A. baumanii; assay: Minimal bactericidal concentration (MBC); assay type: cell-based; details: Acinetobacter baumannii
Protocol: as §1

Compound | MIC [1] [µM] | MBC [2] [µM] | MIC [3] [µM] | MBC [4] [µM] | MBC [5] [µM] | MIC [6] [µM] | MIC [7] [µM] | MIC ([8]; ATCC25922) [µM] | MIC [9] [µM] | antimicrobial activity (SAR grading) [11] | MIC [11] [µM] | MBC [14] [µM] | MBC [15] [µM] | MBC [16] [µM] | MIC ([17]; ATCC10145) [µM] | MIC [18] [µM] | MIC [19] [µM] | further results
COc1ccc(C(=O)NN=Cc2ccc(N)cc2)cc1OC [Compound 4a, N'-(4-aminobenzylidene)-3,4-dimethoxybenzohydrazide] | 105 (≈ 31.3 µg/mL) | 105 (≈ 31.3 µg/mL) | 105 (≈ 31.3 µg/mL) | 105 (≈ 31.3 µg/mL) | 105 (≈ 31.3 µg/mL) | 52.1 (≈ 15.6 µg/mL) | 26.1 (≈ 7.82 µg/mL) | 52.1 (≈ 15.6 µg/mL) | 52.1 (≈ 15.6 µg/mL) | high antimicrobial activity | 58 (≈ 17.4 µg/mL) | 105 (≈ 31.3 µg/mL) | 105 (≈ 31.3 µg/mL) | 105 (≈ 31.3 µg/mL) | 52.1 (≈ 15.6 µg/mL) | 26.1 (≈ 7.82 µg/mL) | 52.1 (≈ 15.6 µg/mL) | zones of inhibition (antifungal activity) [10]: best antifungal activity; IC50 [12]: 0.407 mM; MBC [13]: 105 µM (≈ 31.3 µg/mL)
CCOc1ccc(C=NNC(=O)c2ccc(OC)c(OC)c2)cc1 [Compound 4b, N'-(4-ethoxybenzylidene)-3,4-dimethoxybenzohydrazide] | 190 (≈ 62.6 µg/mL) | 95.4 (≈ 31.3 µg/mL) | 381 (≈ 125 µg/mL) |  | 95.4 (≈ 31.3 µg/mL) | 381 (≈ 125 µg/mL) | 95.4 (≈ 31.3 µg/mL) | 23.8 (≈ 7.82 µg/mL) | 23.8 (≈ 7.82 µg/mL) | weakest antimicrobial activity | 140 (≈ 46 µg/mL) |  |  |  | 23.8 (≈ 7.82 µg/mL) | 95.4 (≈ 31.3 µg/mL) | 47.5 (≈ 15.6 µg/mL) | MIC ([8]; ATCC25922, 24 h): 23.3 µM (≈ 7.64 µg/mL); MIC ([9]; 24 h): 23.3 µM (≈ 7.64 µg/mL); MIC ([17]; ATCC10145, 24 h): 23.3 µM (≈ 7.64 µg/mL)
COc1ccc(C(=O)NN=Cc2ccc(NC(C)=O)cc2)cc1OC [Compound 4c, N-(4-((2–(3,4-dimethoxybenzoyl)hydrazono)methyl)phenyl)acetamide] | 91.8 (≈ 31.3 µg/mL) |  | 183 (≈ 62.5 µg/mL) |  |  | 45.7 (≈ 15.6 µg/mL) | 45.7 (≈ 15.6 µg/mL) | 22.9 (≈ 7.81 µg/mL) | 183 (≈ 62.5 µg/mL) | moderate antimicrobial potential | 81.4 (≈ 27.8 µg/mL) | 91.8 (≈ 31.3 µg/mL) |  | 91.8 (≈ 31.3 µg/mL) | 22.9 (≈ 7.81 µg/mL) | 91.8 (≈ 31.3 µg/mL) | 45.7 (≈ 15.6 µg/mL) | 
COc1ccc(C(=O)NN=Cc2c(C)cc(C)cc2C)cc1OC [Compound 4d, N'-(2,4,6-trimethylbenzylidene)-3,4-dimethoxybenzohydrazide] | 192 (≈ 62.5 µg/mL) |  | 383 (≈ 125 µg/mL) |  | 192 (≈ 62.5 µg/mL) | 96 (≈ 31.3 µg/mL) | 47.8 (≈ 15.6 µg/mL) | 47.8 (≈ 15.6 µg/mL) | 96 (≈ 31.3 µg/mL) | weakest antimicrobial activity | 149 (≈ 48.7 µg/mL) | 192 (≈ 62.5 µg/mL) | 192 (≈ 62.5 µg/mL) | 192 (≈ 62.5 µg/mL) | 96 (≈ 31.3 µg/mL) | 192 (≈ 62.5 µg/mL) | 192 (≈ 62.5 µg/mL) | 
COc1ccc(C(=O)NN=Cc2cc(Br)cc(Br)c2O)cc1OC [Compound 4e, N'-(3,5-dibromo-2-hydroxybenzylidene)-3,4-dimethoxybenzohydrazide] | 34.2 (≈ 15.7 µg/mL) |  | 137 (≈ 62.8 µg/mL) | 68.7 (≈ 31.4 µg/mL) |  | 137 (≈ 62.8 µg/mL) | 34.2 (≈ 15.7 µg/mL) | 17.1 (≈ 7.85 µg/mL) | 68.7 (≈ 31.4 µg/mL) | moderate antimicrobial activity | 72.4 (≈ 33.2 µg/mL) |  | 68.7 (≈ 31.4 µg/mL) |  | 68.7 (≈ 31.4 µg/mL) |  | 17.1 (≈ 7.85 µg/mL) | MIC ([18]; C. albicans (CA), read-out: MIC): 137 µM (≈ 62.8 µg/mL)
COc1ccc(C(=O)NN=Cc2cc(Cl)cc(Cl)c2O)cc1OC [Compound 4f, N'-(3,5-dichloro-2-hydroxybenzylidene)-3,4-dimethoxybenzohydrazide] | 42.4 (≈ 15.7 µg/mL) |  | 85 (≈ 31.4 µg/mL) | 85 (≈ 31.4 µg/mL) |  | 42.4 (≈ 15.7 µg/mL) | 170 (≈ 62.7 µg/mL) | 42.4 (≈ 15.7 µg/mL) | 85 (≈ 31.4 µg/mL) | moderate antimicrobial activity | 73.2 (≈ 27 µg/mL) |  |  |  | 85 (≈ 31.4 µg/mL) | 85 (≈ 31.4 µg/mL) | 21.2 (≈ 7.83 µg/mL) | IC50 [12]: 2.16 mM
COc1ccc(C(=O)NN=Cc2cc(C(C)(C)C)cc(C(C)(C)C)c2O)cc1OC [Compound 4g, N'-(3,5-di-tert-butyl-2-hydroxybenzylidene)-3,4-dimethoxybenzohydrazide] | 75.9 (≈ 31.3 µg/mL) |  | 152 (≈ 62.5 µg/mL) | 75.9 (≈ 31.3 µg/mL) | 75.9 (≈ 31.3 µg/mL) | 18.9 (≈ 7.82 µg/mL) | 152 (≈ 62.5 µg/mL) | 75.9 (≈ 31.3 µg/mL) | 37.8 (≈ 15.6 µg/mL) | moderate antimicrobial activity | 73.7 (≈ 30.4 µg/mL) |  |  | 75.9 (≈ 31.3 µg/mL) | 75.9 (≈ 31.3 µg/mL) | 37.8 (≈ 15.6 µg/mL) | 37.8 (≈ 15.6 µg/mL) | 
CCCCCCCCCCCCOc1ccc(C=NNC(=O)c2ccc(OC)c(OC)c2)cc1 [Compound 4j, N'-(4-(dodecyloxy)benzylidene)-3,4-dimethoxybenzohydrazide] | 16.7 (≈ 7.82 µg/mL) |  | 134 (≈ 62.6 µg/mL) | 66.8 (≈ 31.3 µg/mL) | 66.8 (≈ 31.3 µg/mL) | 16.7 (≈ 7.82 µg/mL) | 66.8 (≈ 31.3 µg/mL) | 66.8 (≈ 31.3 µg/mL) | 33.3 (≈ 15.6 µg/mL) | moderate antimicrobial activity | 74.2 (≈ 34.7 µg/mL) |  |  | 33.3 (≈ 15.6 µg/mL) | 33.3 (≈ 15.6 µg/mL) | 267 (≈ 125 µg/mL) | 33.3 (≈ 15.6 µg/mL) | MBC [20]: 66.8 µM (≈ 31.3 µg/mL)
CO/N=C(\C(=O)N[C@@H]1C(=O)N2C(C(=O)O)=C(CSc3nc(=O)c(=O)[nH]n3C)CS[C@H]12)c1csc(N)n1 [ceftriaxone, reference compound] |  | 225 (≈ 125 µg/mL) |  | 113 (≈ 62.5 µg/mL) | 225 (≈ 125 µg/mL) |  | 3.52 (≈ 1.95 µg/mL) |  | 14.1 (≈ 7.81 µg/mL) |  |  |  | 113 (≈ 62.5 µg/mL) |  |  |  | 14.1 (≈ 7.81 µg/mL) | MBC [20]: 113 µM (≈ 62.5 µg/mL)
